{"source": "patent US4100274A", "about": "“Polypeptide” (Imperial Chemical Industries Limited, priority 1976, dated 1978)"}
{"assay": "toxic effects at multiples of the minimum active dose", "assay_type": "in vivo, rats", "settings": "dosed at one hundred times their minimum effective dose"}
{"smiles": "CC(C)C[C@H](NC(=O)[C@@H](Cc1ccccc1)NC(=O)[C@H](Cc1ccc(O)cc1)NC(=O)[C@H](CO)NC(=O)[C@H](Cc1c[nH]c2ccccc12)NC(=O)[C@H](Cc1c[nH]cn1)NC(=O)[C@@H]1CCC(=O)N1)C(=O)N[C@@H](CCCNC(=N)N)C(=O)N1CCC[C@H]1C(=O)NNC(N)=O", "note": "[Example 4]", "toxic effects": "no toxic effects"}
{"smiles": "COc1ccc(C[C@@H](NC(=O)[C@H](Cc2ccc(O)cc2)NC(=O)[C@H](CO)NC(=O)[C@H](Cc2c[nH]c3ccccc23)NC(=O)[C@H](Cc2c[nH]cn2)NC(=O)[C@@H]2CCC(=O)N2)C(=O)N[C@@H](CC(C)C)C(=O)N[C@@H](CCCNC(=N)N)C(=O)N2CCC[C@H]2C(=O)NNC(N)=O)cc1", "note": "[Example 6]", "toxic effects": "no toxic effects"}
{"smiles": "CC(C)C[C@H](NC(=O)[C@@H](COC(C)(C)C)NC(=O)[C@H](Cc1ccc(O)cc1)NC(=O)[C@H](CO)NC(=O)[C@H](Cc1c[nH]c2ccccc12)NC(=O)[C@H](Cc1cnc[nH]1)NC(=O)[C@@H]1CCC(=O)N1)C(=O)N[C@@H](CCCNC(=N)N)C(=O)N1CCC[C@H]1C(=O)NNC(N)=O", "note": "[Example 7]", "toxic effects": "no toxic effects"}
